According to PubChem BioAssay (NCI):
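Following 48 hours of exposure in 96-well plates, responses at five concentrations were used to interpolate endpoints linearly. GI50 marks 50% less growth. Definition used: TGI = concentration required for complete inhibition of growth.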

What was measured:
Assay in all cases: NCI anticancer screen, dose series, 48 h
[1] = system: 786-0 renal
[2] = system: A498 renal
[3] = system: A549 NSCLC
[4] = system: ACHN renal
[5] = system: BT-549 breast
[6] = system: CAKI-1 renal
[7] = system: CCRF-CEM leukemia
[8] = system: COLO 205 colon
[9] = system: DU-145 prostate
[10] = system: EKVX NSCLC
[11] = system: HCC-2998 colon
[12] = system: HCT-116 colon
[13] = system: HCT-15 colon
[14] = system: HL-60(TB) leukemia
[15] = system: HOP-62 NSCLC
[16] = system: HOP-92 NSCLC
[17] = system: HS 578T breast
[18] = system: HT29 colon
[19] = system: IGROV1 ovarian
[20] = system: K-562 leukemia
[21] = system: KM12 colon
[22] = system: LOX IMVI melanoma
[23] = system: M14 melanoma
[24] = system: MALME-3M melanoma
[25] = system: MCF7 breast
[26] = system: MDA-MB-231 breast
[27] = system: MDA-MB-435
[28] = system: MDA-MB-468 breast
[29] = system: MOLT-4 leukemia
[30] = system: NCI-H226 lung
[31] = system: NCI-H23 lung
[32] = system: NCI-H460 lung
[33] = system: NCI-H522 lung
[34] = system: NCI/ADR-RES ovarian
[35] = system: OVCAR-3 ovarian
[36] = system: OVCAR-4 ovarian
[37] = system: OVCAR-5 ovarian
[38] = system: OVCAR-8 ovarian
[39] = system: PC-3 prostate
[40] = system: RPMI-8226 leukemia
[41] = system: RXF 393 renal
[42] = system: SF-268 CNS
[43] = system: SF-295 CNS
[44] = system: SF-539 CNS
[45] = system: SK-MEL-2 melanoma
[46] = system: SK-MEL-28 melanoma
[47] = system: SK-MEL-5 melanoma
[48] = system: SK-OV-3 ovarian
[49] = system: SN12C renal
[50] = system: SNB-19 CNS
[51] = system: SNB-75 CNS
[52] = system: SW-620 colon
[53] = system: T-47D breast
[54] = system: TK-10 renal
[55] = system: U251 CNS
[56] = system: UACC-257 melanoma
[57] = system: UACC-62 melanoma
[58] = system: UO-31 renal

CN(C)c1nc(NCCNS(=O)(=O)c2ccc(C(=O)/C=C/c3ccc(F)cc3)cc2)nc(Nc2ccc(F)cc2)n1
GI50 [1]: 2.56 µM
TGI [1]: 6.3 µM
GI50 [2]: 6.21 µM
TGI [2]: 19.3 µM
GI50 [3]: 3.41 µM
TGI [3]: 14.2 µM
GI50 [4]: 3.13 µM
TGI [4]: 10.9 µM
GI50 [5]: 4.87 µM
TGI [5]: 17.1 µM
GI50 [6]: 3.01 µM
TGI [6]: 12.7 µM
GI50 [7]: 3.42 µM
TGI [7]: > 100 µM
GI50 [8]: 2.38 µM
TGI [8]: 6.56 µM
GI50 [9]: 3.94 µM
TGI [9]: 14 µM
GI50 [10]: 2.95 µM
TGI [10]: 10.9 µM
GI50 [11]: 1.8 µM
TGI [11]: 3.45 µM
GI50 [12]: 1.6 µM
TGI [12]: 3.01 µM
GI50 [13]: 1.99 µM
TGI [13]: 4.28 µM
GI50 [14]: 2.04 µM
TGI [14]: 6.34 µM
GI50 [15]: 8.39 µM
TGI [15]: 23.6 µM
GI50 [16]: 2.49 µM
TGI [16]: 6.51 µM
GI50 [17]: 6.3 µM
TGI [17]: 71.5 µM
GI50 [18]: 1.9 µM
TGI [18]: 3.65 µM
GI50 [19]: 4.27 µM
TGI [19]: 15 µM
GI50 [20]: 2.42 µM
TGI [20]: 6.8 µM
GI50 [21]: 2 µM
TGI [21]: 4.41 µM
GI50 [22]: 1.66 µM
TGI [22]: 3.07 µM
GI50 [23]: 2.6 µM
TGI [23]: 8.29 µM
GI50 [24]: 3.42 µM
TGI [24]: 12.4 µM
GI50 [25]: 1.8 µM
TGI [25]: 3.46 µM
GI50 [26]: 2.64 µM
TGI [26]: 8.38 µM
GI50 [27]: 2.32 µM
TGI [27]: 5.69 µM
GI50 [28]: 2.55 µM
TGI [28]: 8.09 µM
GI50 [29]: 2.5 µM
TGI [29]: 6.5 µM
GI50 [30]: 3.41 µM
TGI [30]: 16.4 µM
GI50 [31]: 4.17 µM
TGI [31]: 15.6 µM
GI50 [32]: 2.45 µM
TGI [32]: 6.92 µM
GI50 [33]: 2.81 µM
TGI [33]: 8.9 µM
GI50 [34]: 3.25 µM
TGI [34]: 11.6 µM
GI50 [35]: 1.74 µM
TGI [35]: 3.24 µM
GI50 [36]: 3.68 µM
TGI [36]: 15.6 µM
GI50 [37]: 3.39 µM
TGI [37]: 15 µM
GI50 [38]: 3.42 µM
TGI [38]: 13.9 µM
GI50 [39]: 2.76 µM
TGI [39]: 10.6 µM
GI50 [40]: 2.42 µM
TGI [40]: 6.92 µM
GI50 [41]: 2.26 µM
TGI [41]: 7.51 µM
GI50 [42]: 3.89 µM
TGI [42]: 16.4 µM
GI50 [43]: 3.4 µM
TGI [43]: 13 µM
GI50 [44]: 2.52 µM
TGI [44]: 6.78 µM
GI50 [45]: 2.77 µM
TGI [45]: 8.31 µM
GI50 [46]: 3.6 µM
TGI [46]: 13.7 µM
GI50 [47]: 2.91 µM
TGI [47]: 11.1 µM
GI50 [48]: 8.23 µM
TGI [48]: 21.6 µM
GI50 [49]: 1.7 µM
TGI [49]: 3.36 µM
GI50 [50]: 4.58 µM
TGI [50]: 16.8 µM
GI50 [51]: 2.88 µM
TGI [51]: 16 µM
GI50 [52]: 1.9 µM
TGI [52]: 4.02 µM
GI50 [53]: 3.02 µM
TGI [53]: 11.7 µM
GI50 [54]: 4.62 µM
TGI [54]: 16.6 µM
GI50 [55]: 1.99 µM
TGI [55]: 4.41 µM
GI50 [56]: 3.61 µM
TGI [56]: 15.2 µM
GI50 [57]: 3.57 µM
TGI [57]: 14.6 µM
GI50 [58]: 2.9 µM
TGI [58]: 11.9 µM
